Laboratory results published in patent US9938273B2 (Plexxikon Inc., priority 2015, dated 2018).

Key:
FLT3-ITD = target: T1, FLT3-ITD (Homo sapiens, UniProt P36888); assay: AlphaScreen kinase assay with recombinant enzyme, FLT3-ITD; format: biochemical; settings: 8pt; read-out: FLT3_ITD 8pt: IC50
T1 sequence (P36888 1-993): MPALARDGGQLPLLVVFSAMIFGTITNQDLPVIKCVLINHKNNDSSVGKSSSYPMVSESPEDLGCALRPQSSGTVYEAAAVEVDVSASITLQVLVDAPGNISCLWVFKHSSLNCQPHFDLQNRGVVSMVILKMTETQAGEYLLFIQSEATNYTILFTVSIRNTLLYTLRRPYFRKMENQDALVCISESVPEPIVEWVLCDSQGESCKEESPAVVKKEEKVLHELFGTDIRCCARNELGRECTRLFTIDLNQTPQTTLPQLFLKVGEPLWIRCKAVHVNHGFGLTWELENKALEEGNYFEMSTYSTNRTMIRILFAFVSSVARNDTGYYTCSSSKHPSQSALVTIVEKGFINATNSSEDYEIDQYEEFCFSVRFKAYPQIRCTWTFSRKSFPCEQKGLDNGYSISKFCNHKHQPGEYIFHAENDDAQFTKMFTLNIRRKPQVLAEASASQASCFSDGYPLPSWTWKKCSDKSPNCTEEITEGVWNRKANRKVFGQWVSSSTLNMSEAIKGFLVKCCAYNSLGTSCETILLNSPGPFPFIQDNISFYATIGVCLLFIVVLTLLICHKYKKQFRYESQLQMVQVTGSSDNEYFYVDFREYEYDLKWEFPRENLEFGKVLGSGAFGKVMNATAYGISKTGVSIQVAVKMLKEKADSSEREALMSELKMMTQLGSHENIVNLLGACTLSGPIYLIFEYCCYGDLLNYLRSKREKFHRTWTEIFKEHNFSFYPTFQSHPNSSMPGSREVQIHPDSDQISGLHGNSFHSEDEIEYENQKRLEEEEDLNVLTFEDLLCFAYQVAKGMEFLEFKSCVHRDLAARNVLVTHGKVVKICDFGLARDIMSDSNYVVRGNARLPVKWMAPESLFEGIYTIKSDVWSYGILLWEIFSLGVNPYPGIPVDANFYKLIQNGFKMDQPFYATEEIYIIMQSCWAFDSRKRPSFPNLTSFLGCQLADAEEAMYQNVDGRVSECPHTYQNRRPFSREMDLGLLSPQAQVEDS
How it was run: (§1)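 Inhibition was measured as a drop in AlphaScreen signal arising from phosphotyrosine-bead capture of a biotinylated poly(Glu4-Tyr) peptide (30 nM) phosphorylated by recombinant kinase. For IC50 work the stated final concentration was 10 μM for the FLT3 mutants and 100 μM for c-KIT.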

FLT3-D835Y = target: T2, FLT3-D835Y (Homo sapiens, UniProt P36888, D835Y); assay: AlphaScreen kinase assay with recombinant enzyme, FLT3-D835Y; format: biochemical; settings: 8pt, GMean
T2 construct: purchased Invitrogen PV3967
T2 sequence (P36888 27-993 D835Y): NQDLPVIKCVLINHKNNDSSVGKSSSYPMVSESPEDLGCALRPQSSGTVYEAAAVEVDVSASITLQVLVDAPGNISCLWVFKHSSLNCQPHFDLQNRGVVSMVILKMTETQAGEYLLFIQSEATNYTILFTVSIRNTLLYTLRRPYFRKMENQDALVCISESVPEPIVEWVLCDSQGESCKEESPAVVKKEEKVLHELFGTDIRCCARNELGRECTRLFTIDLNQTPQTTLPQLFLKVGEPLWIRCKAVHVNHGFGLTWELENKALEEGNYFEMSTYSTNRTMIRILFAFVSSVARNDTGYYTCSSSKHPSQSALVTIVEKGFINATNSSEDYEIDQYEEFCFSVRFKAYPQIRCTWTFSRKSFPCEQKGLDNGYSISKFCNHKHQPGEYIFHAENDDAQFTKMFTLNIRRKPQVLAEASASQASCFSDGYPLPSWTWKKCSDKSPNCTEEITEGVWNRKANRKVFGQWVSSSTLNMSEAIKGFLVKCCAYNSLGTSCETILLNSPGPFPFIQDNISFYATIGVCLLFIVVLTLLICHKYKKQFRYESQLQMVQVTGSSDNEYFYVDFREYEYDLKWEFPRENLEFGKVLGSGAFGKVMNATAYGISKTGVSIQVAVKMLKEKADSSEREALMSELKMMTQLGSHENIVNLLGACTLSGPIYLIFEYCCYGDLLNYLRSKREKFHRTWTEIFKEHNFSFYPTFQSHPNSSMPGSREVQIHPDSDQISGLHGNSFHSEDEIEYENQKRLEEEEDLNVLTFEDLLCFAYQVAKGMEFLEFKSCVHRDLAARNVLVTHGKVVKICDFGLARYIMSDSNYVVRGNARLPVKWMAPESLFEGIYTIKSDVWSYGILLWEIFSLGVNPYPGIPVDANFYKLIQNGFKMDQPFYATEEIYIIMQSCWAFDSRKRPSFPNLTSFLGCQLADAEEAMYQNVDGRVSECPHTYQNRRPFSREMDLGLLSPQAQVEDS
How it was run: as §1

SMILES | IC50 (FLT3-ITD) [µM] | IC50 (FLT3-D835Y) [µM]
NC1CCN(C(=O)c2c[nH]c3ccc(-c4cnc5[nH]c(-c6ccccc6)cc5c4)cc23)CC1 [Compound P-0042, (4-amino-1-piperidyl)-[5-(2-phenyl-1H-pyrrolo[2,3-b]pyridin-5-yl)-1H-indol-3-yl]methanone] | 0.0001 to 10 | 0.0001 to 10
CNC1CCN(C(=O)c2n[nH]c3ccc(-c4cnc5[nH]c(-c6ccccc6)cc5c4)cc23)CC1 [Compound P-0044, [4-(methylamino)-1-piperidyl]-[5-(2-phenyl-1H-pyrrolo[2,3-b]pyridin-5-yl)-1H-indazol-3-yl]methanone] | 0.0001 to 10 | 0.0001 to 10
N[C@H]1CCN(C(=O)c2cc(-c3cnc4[nH]c(-c5ccccc5)cc4c3)ccn2)C1 [Compound P-0046, [(3S)-3-aminopyrrolidin-1-yl]-[4-(2-phenyl-1H-pyrrolo[2,3-b]pyridin-5-yl)-2-pyridyl]methanone] | 0.0001 to 10 | 0.0001 to 10
NC1CCC(C(=O)N2Cc3c(cccc3-c3cnc4[nH]c(-c5ccccc5)cc4c3)C2=O)C1 (centres unmarked) [Compound P-0047, 2-(3-aminocyclopentanecarbonyl)-4-(2-phenyl-1H-pyrrolo[2,3-b]pyridin-5-yl)isoindolin-1-one] | 0.0001 to 10 | 0.0001 to 10
N[C@H]1CCN(C(=O)c2csc(-c3cnc4[nH]c(-c5ccccc5)cc4c3)n2)C1 [Compound P-0048, [(3S)-3-aminopyrrolidin-1-yl]-[2-(2-phenyl-1H-pyrrolo[2,3-b]pyridin-5-yl)thiazol-4-yl]methanone] | 0.0001 to 10 | 10 to 50
c1ccc(-c2cc3cc(-c4ccc5[nH]nc(NC6CNC6)c5c4)cnc3[nH]2)cc1 [Compound P-0053, N-(azetidin-3-yl)-5-(2-phenyl-1H-pyrrolo[2,3-b]pyridin-5-yl)-1H-indazol-3-amine] | 0.0001 to 10 | 0.0001 to 10
c1ccc(-c2cc3cc(-c4ccc5[nH]nc(NC6CCNCC6)c5c4)cnc3[nH]2)cc1 [Compound P-0056, 5-(2-phenyl-1H-pyrrolo[2,3-b]pyridin-5-yl)-N-(4-piperidyl)-1H-indazol-3-amine] | 0.0001 to 10 | 0.0001 to 10
c1ccc(-c2cc3cc(-c4ccc5[nH]nc(NC6CCNC6)c5c4)cnc3[nH]2)cc1 (centres unmarked) [Compound P-0059, 5-(2-phenyl-1H-pyrrolo[2,3-b]pyridin-5-yl)-N-pyrrolidin-3-yl-1H-indazol-3-amine] | 0.0001 to 10 | 0.0001 to 10
NC1CCN(C(=O)c2n[nH]c3ccc(-c4cnc5[nH]c(C6=CCN(C(=O)C7CC7)C6)cc5c4)cc23)CC1 [Compound P-0074, (4-amino-1-piperidyl)-[5-[2-[1-(cyclopropanecarbonyl)-2,5-dihydropyrrol-3-yl]-1H-pyrrolo[2,3-b]pyridin-5-yl]-1H-indazol-3-yl]methanone] | 0.0001 to 10 | 0.0001 to 10
CN(C(=O)c1cccc(-c2cnc3[nH]c(-c4ccccc4)cc3c2)n1)C1CCNC1 (centres unmarked) [Compound P-0076, N-methyl-6-(2-phenyl-1H-pyrrolo[2,3-b]pyridin-5-yl)-N-pyrrolidin-3-yl-pyridine-2-carboxamide] | 0.0001 to 10 | 0.0001 to 10
CNC1CCN(Cc2cccc(-c3cnc4[nH]c(-c5ccccc5)cc4c3)n2)C1 (centres unmarked) [Compound P-0087, N-methyl-1-[[6-(2-phenyl-1H-pyrrolo[2,3-b]pyridin-5-yl)-2-pyridyl]methyl]pyrrolidin-3-amine] | 0.0001 to 10 | 0.0001 to 10

The next lines start with the values.

IC50 (FLT3-ITD) [µM] | IC50 (FLT3-D835Y) [µM] | SMILES
0.0001 to 10 | 0.0001 to 10 | O=C(c1cccc(-c2cnc3[nH]c(-c4ccccc4)cc3c2)n1)C1CCNCC1 [Compound P-0043, [6-(2-phenyl-1H-pyrrolo[2,3-b]pyridin-5-yl)-2-pyridyl]-(4-piperidyl)methanone]
0.0001 to 10 | 0.0001 to 10 | O=C(NC1CCNC1)c1cccc(-c2cnc3[nH]c(-c4ccccc4)cc3c2)n1 (centres unmarked) [Compound P-0045, 6-(2-phenyl-1H-pyrrolo[2,3-b]pyridin-5-yl)-N-pyrrolidin-3-yl-pyridine-2-carboxamide]
0.0001 to 10 | 0.0001 to 10 | N=C(N)N1CCN(C(=O)c2cccc(-c3cnc4[nH]c(-c5ccccc5)cc4c3)n2)CC1 [Compound P-0057, 4-[6-(2-phenyl-1H-pyrrolo[2,3-b]pyridin-5-yl)pyridine-2-carbonyl]piperazine-1-carboxamidine]
0.0001 to 10 | 0.0001 to 10 | NC1CCCN(C(=O)c2cccc(-c3cnc4[nH]c(-c5ccccc5)cc4c3)n2)C1 (centres unmarked) [Compound P-0067, (3-amino-1-piperidyl)-[6-(2-phenyl-1H-pyrrolo[2,3-b]pyridin-5-yl)-2-pyridyl]methanone]
0.0001 to 10 | 0.0001 to 10 | O=C(c1cccc(-c2cnc3[nH]c(-c4ccccc4)cc3c2)n1)N1CCC(O)C1 (centres unmarked) [Compound P-0068, (3-hydroxypyrrolidin-1-yl)-[6-(2-phenyl-1H-pyrrolo[2,3-b]pyridin-5-yl)-2-pyridyl]methanone]
0.0001 to 10 | 0.0001 to 10 | O=C(c1cccc(-c2cnc3[nH]c(-c4ccccc4)cc3c2)n1)N1CCCC(O)C1 (centres unmarked) [Compound P-0069, (3-hydroxy-1-piperidyl)-[6-(2-phenyl-1H-pyrrolo[2,3-b]pyridin-5-yl)-2-pyridyl]methanone]
0.0001 to 10 | 0.0001 to 10 | CNC1CCCN(C(=O)c2cccc(-c3cnc4[nH]c(-c5ccccc5)cc4c3)n2)C1 (centres unmarked) [Compound P-0080, [3-(methylamino)-1-piperidyl]-[6-(2-phenyl-1H-pyrrolo[2,3-b]pyridin-5-yl)-2-pyridyl]methanone]
0.0001 to 10 | 0.0001 to 10 | CC1(N)CCN(C(=O)c2cccc(-c3cnc4[nH]c(-c5ccccc5)cc4c3)n2)CC1 [Compound P-0081, (4-amino-4-methyl-1-piperidyl)-[6-(2-phenyl-1H-pyrrolo[2,3-b]pyridin-5-yl)-2-pyridyl]methanone]
0.0001 to 10 | 0.0001 to 10 | CC1(N)CCCN(C(=O)c2cccc(-c3cnc4[nH]c(-c5ccccc5)cc4c3)n2)C1 (centres unmarked) [Compound P-0082, (3-amino-3-methyl-1-piperidyl)-[6-(2-phenyl-1H-pyrrolo[2,3-b]pyridin-5-yl)-2-pyridyl]methanone]
0.0001 to 10 | 0.0001 to 10 | N[C@@H]1CN(C(=O)c2cccc(-c3cnc4[nH]c(-c5ccccc5)cc4c3)n2)CC12CC2 [Compound P-0083, [(7S)-7-amino-5-azaspiro[2.4]heptan-5-yl]-[6-(2-phenyl-1H-pyrrolo[2,3-b]pyridin-5-yl)-2-pyridyl]methanone]
0.0001 to 10 | 50 to 100 | O=C(c1cccc(-c2cnc3[nH]c(-c4ccccc4)cc3c2)n1)N1CCC(F)(F)CC1 [Compound P-0089, (4,4-difluoro-1-piperidyl)-[6-(2-phenyl-1H-pyrrolo[2,3-b]pyridin-5-yl)-2-pyridyl]methanone]
